According to patent US20040248864A1, “Use of anthroquinones in the treatment of kidney disease” (priority 2001, published 2004):
Read-outs that look alike come from different tables or passages of the source.

Experiments:
[1] = tested on: inducible nitric oxide synthase; settings: osteochondrocytes, IL-1b stimulated; Pelletier 1998; cited from earlier work
[2] = tested on: nephrotoxic nephritis; assay: rat model of nephritis (nephrotoxic nephritis): proteinuria and renal histology (crescents); format: in vivo; settings: for proteinuria compared to the control: diacerein 50, 100 and oral once a day, prednisolone 2 mg/kg
Experimental: Experiments were conducted, using a rat model of nephritis (nephrotoxic nephritis) (Karkar et al, Kidney International, 1997). This is an aggressive immune driven model which parallels clinical conditions such as lupus nephritis, glomerulonephritis, IgA nephropathy and other immune-mediated nephritic diseases.
[…] Development of nephrotoxic nephritis was measured by the degree of proteinuria (in the control group) at days 6 and 10, post-disease initiation and by renal histology at day 10, quantified by the number of damaged nephrons (crescents) per histology section. These end-points were used to determine the success of the diacerein treatment. Alongside diacerein treatment, a negative control (drug vehicle only) and positive control (2 mg/kg prednisolone) were tested.

[3] = humans; cited from earlier work
[4] = PK profile: plasma concentration of rhein after oral dosing with diacerein; format: in vivo; settings: rat
Experimental: FIG. 1 is a PK profile, i.e. a graph of plasma concentration of rhein (mg/ml) against time (min) post-dosing with 100, 200 and 300 mg/kg diacerein.
Consequently, the dosing for the nephrotoxic nephritis experiment was based around this dose range (see below).

[5] = tested on: IL-1; settings: Yaron et al 1999; Moldovan 2000; cited from earlier work
[6] = tested on: MMPs 1, 3, 9 & 13 and pro-MMPs; settings: Tamura et al 2001; cited from earlier work
[7] = tested on: TIMP-1; settings: Tamura et al 2001; cited from earlier work
[8] = day 6 post-disease initiation, significant at highest dose (p<0.01)
[9] = day 10 post-disease initiation, significant at top dose (p<0.01)

oral dose required to obtain therapeutic plasma concentrations of drug [4] | Structure (SMILES) | production of inducible nitric oxide synthase and production of nitric oxide [1] | proteinuria compared to the control [2, 8] | nephron damage (crescents per histology section) ([2]; day 10 histology, 50 mg/kg diacerein) | nephron damage (crescents per histology section) ([2]; day 10 histology, 100 mg/kg diacerein, significant (p<0.05)) | nephron damage (crescents per histology section) ([2]; day 10 histology, 200 mg/kg diacerein) | proteinuria compared to the control [2, 9] | effect on both proteinuria and renal damage associated with nephrotoxic nephritis ([2]; overall summary of the study) | oral dose required to obtain therapeutic plasma concentrations of drug [3] | production of the pro-inflammatory cytokine IL-1 [5] | effect on renal damage (histology) ([2]; day 10 histology, 2 mg/kg prednisolone) | production of key matrix metalloproteinases MMPs 1, 3, 9 & 13 and pro-MMPs [6] | production of tissue inhibitor of matrix MMP-1, TIMP-1 [7]
100 to 200 mg/kg | CC(=O)Oc1cccc2c1C(=O)c1c(OC(C)=O)cc(C(=O)O)cc1C2=O [diacerein] | reduce the production | decreased compared to the control | decrease in nephron damage | decrease in nephron damage | slight increase again | dose-dependant decrease in proteinuria | significant effect | 0.8 mg/kg | reduce the production | – | – | –
– | C[C@]12C=CC(=O)C=C1CC[C@@H]1[C@@H]2[C@@H](O)C[C@@]2(C)[C@H]1CC[C@]2(O)C(=O)CO [prednisolone] | – | markedly reduced proteinuria | – | – | – | unexpected rebound above the control proteinuria levels | – | – | – | negligible | – | –
– | O=C(O)c1cc(O)c2c(c1)C(=O)c1cccc(O)c1C2=O [rhein] | reduce the production | – | – | – | – | – | – | – | reduce the production | – | down-regulates the production | increases the production
